assay: physchem; conditions: octanol/water

Cc1nc2ccccn2c1-c1ccc2cc(CCN3CCC[C@H]3C)ccc2n1 and Cc1ccc(-c2ccc3cc(CCN4CCC[C@H]4C)ccc3n2)c(C)n1 are within 0.2 log units of each other in logD: 3.2 for the first, 3.1 for the second.

Compared with COc1cccc2c1OC(c1ccc(OCCCN3CCC[C@@H]3C)cc1)C(C)S2(=O)=O (stereo partly specified), COc1cccc2c1S(=O)(=O)C(C)C(c1ccc(OCCCN3CCCC3)cc1)O2 (stereo unspecified) is lower in logD: 2.6 for the first, 2.2 for the second.

First: Cc1nc2cccc(Cl)c2c(=O)n1-c1ccc(OCCCN2CCCC2)cc1
Second: Cc1cccc2nc(C)n(-c3ccc(OCCCN4CCCC4)cc3)c(=O)c12
The logD of the first is higher: 2.4 for the first, 2.2 for the second.

Compared with O=c1c2ccccc2nc(-c2ccc(OCCCN3CCCCC3)cc2)n1Cc1ccccc1, O=c1c2ccccc2nc(-c2ccccc2)n1-c1ccc(OCCCN2CCCC2)cc1 is lower in logD: 3.8 for the first, 3.4 for the second.

Going from COc1cccc2c(=O)n(C)c(-c3ccc(OC4CCN(C5CCC5)CC4)cc3)nc12 to Cc1cccc2c(=O)n(C)c(-c3ccc(OC4CCN(C5CCC5)CC4)cc3)nc12, the logD rises from 2.2 to 2.7.

Fc1cc(-c2cc3sc(N4CCC(N5CCCCC5)CC4)nc3cn2)ccn1 and COc1cc(-c2cc3sc(N4CCC(N5CCCCC5)CC4)nc3cn2)ccn1 are within 0.2 log units of each other in logD: 1.7 for the first, 1.6 for the second.

First: Nc1cnc(-c2cc3sc(N4CCC(N5CCCCC5)CC4)nc3cn2)cn1
Second: Nc1ccc(-c2cc3sc(N4CCC(N5CCCCC5)CC4)nc3cn2)cn1
The logD of the first is lower: 0.2 for the first, 0.9 for the second.

Compared with Cn1c(-c2ccc(OC3CCN(C4CCC4)CC3)cc2)nc2c(C(F)(F)F)cccc2c1=O, COc1cccc2nc(-c3ccc(OC4CCN(C5CCC5)CC4)cc3)n(C)c(=O)c12 is lower in logD: 3.1 for the first, 2.2 for the second.

Going from Cc1nc(C)c(-c2ccc3cc(CCN4CCC[C@H]4C)ccc3n2)s1 to Cc1n[nH]c(C)c1-c1ccc2cc(CCN3CCC[C@H]3C)ccc2n1, the logD falls from 2.9 to 2.5.

Compared with CC(=O)Nc1ccc(-c2cc3sc(N4CCC(N5CCCCC5)CC4)nc3cn2)cn1, Oc1ccc(-c2cc3sc(N4CCC(N5CCCCC5)CC4)nc3cn2)cn1 is higher in logD: 0.8 for the first, 1.4 for the second.

C[C@@H]1CCCN1CCc1ccc2nc(-c3ccn[nH]3)ccc2c1 and C[C@@H]1CCCN1CCc1ccc2nc(-c3cccnc3)ccc2c1 are within 0.2 log units of each other in logD: 2.4 for the first, 2.5 for the second.

Compared with C=C(N(C)Cc1ccc(-c2ccccc2)cc1)N1CCN(C(C)C)CC1, CC(C)N1CCN(C(=O)N2CCC(Cc3ccccc3)CC2)CC1 is higher in logD: 1.8 for the first, 2 for the second.

Going from Cc1ccc2cc(CCN3CCC[C@H]3C)ccc2n1 to C[C@@H]1CCCN1CCc1ccc2ncccc2c1, the logD falls from 2 to 1.7.

First: C[C@@H]1CCCN1CCc1ccc2nc(-c3ccc4c(c3)COCO4)ccc2c1
Second: C[C@@H]1CCCN1CCc1ccc2nc(-c3cnc4c(c3)OCO4)ccc2c1
The logD of the first is higher: 3.2 for the first, 2.8 for the second.

First: CC(C)N1CCN(C(=O)N2CCC(c3ccccc3)CC2)CC1
Second: O=C(N1CCN(C2CC2)CC1)N1Cc2ccccc2C1
The logD of the first is higher: 1.6 for the first, 0.1 for the second.

Going from O=C(NCc1ccc(C(F)(F)F)cc1)N1CCC[C@H]1CN1CCCC1 to Cc1nc2cc(C(F)(F)F)ccc2c(=O)n1-c1ccc(OCCCN2CCCC2)cc1, the logD rises from 1.8 to 2.6.

First: C[C@@H]1CCCN1CCc1ccc2nc(-c3csc(-c4cc(Cl)nc(Cl)c4)n3)ccc2c1
Second: C[C@@H]1CCCN1CCc1ccc2nc(-c3ccc(Cl)nc3)ccc2c1
The logD of the first is higher: 5 for the first, 3.4 for the second.

Compared with Cn1c(-c2ccc(OC3CCN(C4CCCC4)CC3)cc2)nc2ccccc2c1=O, COc1ccc2nc(-c3ccc(OC4CCN(C5CCC5)CC4)cc3)n(C)c(=O)c2c1 is lower in logD: 2.6 for the first, 2.2 for the second.

First: CC1COCC(C)N1S(=O)(=O)c1ccc(-c2ccc(CCN3CCC[C@H]3C)cc2)cc1 (stereo partly specified)
Second: C[C@@H]1CCCN1CCc1ccc(-c2ccc(S(=O)(=O)N3CCOCC3)cc2)cc1
The logD of the first is higher: 2.6 for the first, 1.9 for the second.

Cc1nc2c(C(F)(F)F)cccc2c(=O)n1-c1ccc(OCCCN2CCCC2)cc1 and Cc1nc2cccc(C(F)(F)F)c2c(=O)n1-c1ccc(OCCCN2CCCC2)cc1 [MK-0249] are the same in logD: 2.6 for the first, 2.6 for the second.

First: Cc1nc(-c2cccs2)sc1-c1ccc2cc(CCN3CCC[C@H]3C)ccc2n1
Second: Cc1nc(-c2ccccn2)sc1-c1ccc2cc(CCN3CCC[C@H]3C)ccc2n1
The logD of the first is higher: 4.6 for the first, 3.9 for the second.

First: Cc1nc(C)c(-c2ccc3cc(CCN4CCCC4C)ccc3n2)cc1C#N (stereo unspecified)
Second: Cc1nc(C)c(-c2ccc3cc(CCN4CCCC4C)ccc3n2)cc1C(N)=O (stereo unspecified)
The logD of the first is higher: 2.9 for the first, 2.1 for the second.

First: COC(=O)c1cc(-c2ccc3cc(CCN4CCC[C@H]4C)ccc3n2)on1
Second: C[C@@H]1CCCN1CCc1ccc2nc(-c3cc(Br)no3)ccc2c1
The logD of the first is lower: 2.7 for the first, 3.4 for the second.

First: CCOC(=N)c1ccc(-c2ccc3cc(CCN4CCC[C@H]4C)ccc3n2)s1
Second: C[C@@H]1CCCN1CCc1ccc2nc(-c3ccc(C#N)s3)ccc2c1
The logD of the first is higher: 4.1 for the first, 3.8 for the second.

First: Cc1c(-c2ccc3cc(CCN4CCC[C@H]4C)ccc3n2)cnn1C
Second: Cc1c(-c2ccc3cc(CCN4CCC[C@H]4C)ccc3n2)cnn1-c1ccccn1
The logD of the first is lower: 2.5 for the first, 3.4 for the second.

Going from c1cc(C2CCCCC2)ccc1OCCCN1CCCCC1 to c1cc(C2CCOCC2)ccc1OCCCN1CCCCC1, the logD falls from 3.6 to 1.8.

Compared with CCCNS(=O)(=O)c1ccc(-c2ccc(CCN3CCC[C@H]3C)cc2)cc1, CCNS(=O)(=O)c1ccc(-c2ccc(CCN3CCC[C@H]3C)cc2)cc1 is lower in logD: 2.8 for the first, 2.3 for the second.

Compared with Cc1cccc2c(=O)n(-c3ccc(OCCCN4CCCC4)cc3)c(C)nc12, Cc1nc2ccc(F)cc2c(=O)n1-c1ccc(OCCCN2CCCC2)cc1 is lower in logD: 2.2 for the first, 1.9 for the second.

Going from COCC1CCCN1S(=O)(=O)c1ccc(-c2ccc(CCN3CCC[C@H]3C)cc2)cc1 (stereo partly specified) to C[C@@H]1CCCN1CCc1ccc(-c2ccc(S(=O)(=O)N3CCC(O)C3)cc2)cc1 (stereo partly specified), the logD falls from 2.5 to 1.5.

First: CCOC(=O)c1ccc(-c2ccc(OCCCN3CCCCC3)cc2)cc1
Second: c1ccc(-c2ccc(OCCCN3CCCCC3)cc2)cc1
The logD of the first is higher: 3.1 for the first, 2.9 for the second.

Compared with N#Cc1cncc(-c2cnc3nc(N4CCC(N5CCCCC5)CC4)sc3c2)c1, c1ncc(-c2cnc3nc(N4CCC(N5CCCCC5)CC4)sc3c2)cn1 is lower in logD: 0.8 for the first, 0.3 for the second.

Going from C[C@@H]1CCCN1CCc1ccc2nc(-c3ccc(C#N)cc3)ccc2c1 to CC1CCCN1CCc1ccc2nc(-c3ccsc3)ccc2c1 (stereo unspecified), the logD falls from 3.5 to 3.3.

Compared with COc1ccc(-c2cc3sc(N4CCC(N5CCCCC5)CC4)nc3cn2)cn1, Cc1ccc(-c2cc3sc(N4CCC(N5CCCCC5)CC4)nc3cn2)cn1 is lower in logD: 1.6 for the first, 1.4 for the second.

Compared with Cc1c(-c2ccc3cc(CCN4CCC[C@H]4C)ccc3n2)cnn1-c1ccc(N(C)C)nn1, Cc1c(-c2ccc3cc(CCN4CCC[C@H]4C)ccc3n2)cnn1-c1ccc(Cl)c(Cl)c1 is higher in logD: 3 for the first, 5.4 for the second.

Going from Cc1c(-c2ccc(Cl)cc2)noc1-c1ccc2cc(CCN3CCC[C@H]3C)ccc2n1 to Cc1onc(-c2ccc(Cl)cc2)c1-c1ccc2cc(CCN3CCC[C@H]3C)ccc2n1, the logD falls from 5.5 to 4.9.

First: COc1ccc2c(c1)S(=O)(=O)C(C)C(c1ccc(OCCCN3CCCC3)cc1)O2 (stereo unspecified)
Second: C[C@H]1Sc2ccccc2O[C@@H]1c1ccc(OCCCN2CCCC2)cc1
The logD of the first is lower: 2.2 for the first, 3.3 for the second.

First: Cc1cc2ncc(-c3ccc4cc(CCN5CCC[C@H]5C)ccc4n3)c(C)n2n1
Second: Cc1c(-c2ccc3cc(CCN4CCC[C@H]4C)ccc3n2)sc2ncnn12
The logD of the first is lower: 2.5 for the first, 2.8 for the second.

CC(C)N1CCN(C(=O)N2CCC(C(=O)N3CC4CCC(CC4)C3)CC2)CC1 and O=C(C1CC(Oc2ccc(F)cc2)CN1)N1CCCN(C2CCCC2)CC1 (stereo unspecified) are the same in logD: 0.9 for the first, 0.9 for the second.

Compared with c1c[nH]c(-c2ccc(OCCCN3CCCCC3)cc2)n1, c1coc(-c2ccc(OCCCN3CCCCC3)cc2)c1 is higher in logD: 1.6 for the first, 2.3 for the second.

First: CC(C)n1c(-c2ccc(OCCCN3CCCCC3)cc2)nc2ccccc2c1=O
Second: Cn1c(-c2ccc(OCCCN3CCCC3)cc2)nc2ccccc2c1=O
The logD of the first is higher: 3 for the first, 1.8 for the second.

Compared with c1cc(C2CCCO2)ccc1OCCCN1CCCCC1 (stereo unspecified), CN(C)C1CCC(c2ccc(OCCCN3CCCCC3)cc2)CC1 (stereo unspecified) is lower in logD: 1.7 for the first, 1.4 for the second.

First: CC1CCN(c2ccc3cc(CCN4CCC[C@H]4C)ccc3n2)CC1
Second: C[C@@H]1CCCN1CCc1ccc2nc(C3=NCCS3)ccc2c1
The logD of the first is higher: 2.9 for the first, 2.7 for the second.

Going from Cc1nc(N2CCCC2)ncc1-c1ccc2cc(CCN3CCC[C@H]3C)ccc2n1 to C[C@@H]1CCCN1CCc1ccc2nc(-c3ccc(N4CCCCC4)cc3)ccc2c1, the logD rises from 2.7 to 3.1.

Compared with CC(=O)Nc1ccc(-c2cnc3nc(N4CCC(N5CCCCC5)CC4)sc3c2)cn1, O=c1ccc(-c2cnc3nc(N4CCC(N5CCCCC5)CC4)sc3c2)c[nH]1 is higher in logD: 0.6 for the first, 1.2 for the second.

Going from O=c1c2ccccc2ncn1-c1ccc(OCCCN2CCCC2)cc1 to CCCc1nc2ccccc2c(=O)n1-c1ccc(OCCCN2CCCC2)cc1, the logD rises from 1.6 to 2.8.

Compared with O=C(C1CC(Oc2cccc(F)c2)CN1)N1CCCN(C2CCC2)CC1 (stereo unspecified), N#Cc1ccc(OC2CNC(C(=O)N3CCCN(C4CCCC4)CC3)C2)cc1 (stereo unspecified) is higher in logD: 0.2 for the first, 0.6 for the second.

Compared with C[C@@H]1CCCN1CCc1ccc(-c2ccc(S(=O)(=O)NCc3ccncc3)cc2)cc1, C[C@@H]1CCCN1CCc1ccc(-c2ccc(S(=O)(=O)NCC3CC3)cc2)cc1 is higher in logD: 2.4 for the first, 2.8 for the second.

c1csc(-c2ccc(OCCCN3CCCCC3)cc2)c1 and COc1ccccc1-c1ccc(OCCCN2CCCCC2)cc1 are within 0.2 log units of each other in logD: 2.8 for the first, 2.9 for the second.

Compared with COc1ccc2c(=O)n(C)c(-c3ccc(OC4CCN(C5CCC5)CC4)cc3)nc2c1, COc1ccc2c(=O)n(-c3ccc(OCCCN4CCCC4)cc3)c(C)nc2c1 is lower in logD: 2.2 for the first, 1.7 for the second.

First: Nc1cnc(-c2cnc3nc(N4CCC(N5CCCCC5)CC4)sc3c2)cn1
Second: Fc1ncccc1-c1cnc2nc(N3CCC(N4CCCCC4)CC3)sc2c1
The logD of the first is lower: -0.1 for the first, 1.5 for the second.

Going from N#Cc1cc(-c2cnc3nc(N4CCC(N5CCCCC5)CC4)sc3c2)ccc1F to Fc1cc(-c2cnc3nc(N4CCC(N5CCCCC5)CC4)sc3c2)ccn1, the logD falls from 2.1 to 1.5.

Compared with O=C(c1ccccc1-c1ccc(OCCCN2CCCCC2)cc1)N1CCCCC1, c1cc(N2CCCCC2)ccc1OCCCN1CCCCC1 is lower in logD: 3.2 for the first, 1.7 for the second.

COc1cccc2nc(C)n(-c3ccc(OCCCN4CCCC4)cc3)c(=O)c12 and COc1ccc2nc(C)n(-c3ccc(OCCCN4CCCC4)cc3)c(=O)c2c1 are the same in logD: 1.7 for the first, 1.7 for the second.

Going from Cc1nc(-c2ccncc2)sc1-c1ccc2cc(CCN3CCC[C@H]3C)ccc2n1 to COc1ncc(-c2ccc3cc(CCN4CCC[C@H]4C)ccc3n2)cn1, the logD falls from 3.5 to 2.4.

Going from C[C@@H]1CCCN1CCc1cc2cc(-c3ccc(C#N)cc3)ccc2o1 to C[C@@H]1CCCN1CCc1ccc(-c2ccc(S(=O)(=O)NC3CCOCC3)cc2)cc1, the logD falls from 3.2 to 1.8.

In the case of Fc1ccc(-c2cc3sc(N4CCC(N5CCCCC5)CC4)nc3cn2)cn1, the logD is reported as 1.7.
